Where “and” joins values, the source holds several entries; their conditions need not be identical. Equal entries are not always repeated.
Tested on: human maximum recommended daily dose, FDA database
Assay: DSSTox (FDAMDD) FDA Maximum (Recommended) Daily Dose Database
Settings: hits give low values
Method in brief: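 MRDD values come from clinical trials with daily oral dosing, usually for 3–12 months, for the average adult, in mg/day converted to mg/kg-bw/day assuming 60 kg. Antineoplastic mg/m2 doses are divided by 37. Activity score maps log10(1/MRDD mmol) onto 1–100.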

[1] = TherapeuticCategory: antihypertensive, antianginal, antiarrhythmic
[2] = TherapeuticCategory: antibacterial
[3] = TherapeuticCategory: anxiolytic
[4] = TherapeuticCategory: antineoplastic
[5] = TherapeuticCategory: anthelmintic
[6] = TherapeuticCategory: antiulcerative
[7] = TherapeuticCategory: antipsychotic
[8] = TherapeuticCategory: antihyperlipoproteinemic
[9] = TherapeuticCategory: antiemetic

For CC(C)NCC(O)COc1ccc(CC(N)=O)cc1 (centres undefined), the maximum recommended daily dose (mmol/kg-bw/day) [1] was 0.0125.
With NC[C@@H]1CC[C@@H](N)[C@@H](O[C@H]2[C@H](O)[C@@H](O[C@H]3O[C@H](CO)[C@@H](O)[C@H](N)[C@H]3O)[C@H](N)C[C@@H]2N)O1 the maximum recommended daily dose (mmol/kg-bw/day) [2] was 0.00664.
With CC(=O)OC(C)C[N+](C)(C)C (centres undefined) the maximum recommended daily dose (mmol/kg-bw/day) (TherapeuticCategory: cholinergic, diagnostic aid) was 0.00213.
In the case of NNC(=O)c1ccncc1, the maximum recommended daily dose (mmol/kg-bw/day) [2] is reported as 0.0729.
Compound CCC1(c2ccccc2)C(=O)NC(=O)NC1=O has a maximum recommended daily dose (mmol/kg-bw/day) (TherapeuticCategory: anticonvulsant, sedative, hypnotic) of 0.0093.
In the case of O=C1CN=C(c2ccccc2)c2cc(Cl)ccc2N1CC(F)(F)F, the maximum recommended daily dose (mmol/kg-bw/day) [3] is reported as 0.00757.
Work on CCC(=O)O[C@H]1CC[C@H]2[C@@H]3CC[C@H]4CC(=O)[C@H](C)C[C@]4(C)[C@H]3CC[C@]12C yielded a maximum recommended daily dose (mmol/kg-bw/day) [4] of 0.00463.
O=C(O)CC(O)(CC(=O)O)C(=O)O was tested, and the maximum recommended daily dose (mmol/kg-bw/day) (TherapeuticCategory: bactericide) was 0.52.
CO[C@H]1C[C@H](O[C@H]2[C@H](C)O[C@@H](O[C@@H]3/C(C)=C/C[C@@H]4C[C@@H](C[C@]5(CC[C@H](C)[C@@H](C(C)C)O5)O4)OC(=O)[C@@H]4C=C(C)[C@@H](O)[C@H]5OC/C(=C\C=C\[C@@H]3C)[C@]54O)C[C@@H]2OC)O[C@@H](C)[C@@H]1O gave a maximum recommended daily dose (mmol/kg-bw/day) [5] of 0.000174.
In the case of CN/C(=C\[N+](=O)[O-])NCCSCc1csc(CN(C)C)n1, the maximum recommended daily dose (mmol/kg-bw/day) [6] is reported as 0.0151.
CC(C)(C)NCC(O)CSc1nc(-c2ccc(C(N)=O)s2)cs1 (centres undefined) was tested, and the maximum recommended daily dose (mmol/kg-bw/day) [1] was 0.000896.
CCC(c1ccccc1)c1c(O)c2ccccc2oc1=O (centres undefined) was tested, and the maximum recommended daily dose (mmol/kg-bw/day) (TherapeuticCategory: anticoagulant) was 0.00143.
In the case of CCOC(=O)CCC(=O)O[C@H]1[C@H](O[C@@H]2[C@@H](C)[C@H](O[C@H]3C[C@@](C)(OC)[C@@H](O)[C@H](C)O3)[C@@H](C)C(=O)O[C@H](CC)[C@@](C)(O)[C@H](O)[C@@H](C)C(=O)[C@H](C)C[C@@]2(C)O)O[C@H](C)C[C@@H]1N(C)C, the maximum recommended daily dose (mmol/kg-bw/day) [2] is reported as 0.0774.
CN(CC(=O)N1CCOCC1)Cc1c(Cl)cccc1NC(=O)c1ccccc1 was tested, and the maximum recommended daily dose (mmol/kg-bw/day) (TherapeuticCategory: antitussive, respiratory stimulant) was 0.0199.
CCCCC(C)(O)C/C=C/[C@H]1[C@H](O)CC(=O)[C@@H]1CCCCCCC(=O)OC (some centres undefined) gave a maximum recommended daily dose (mmol/kg-bw/day) [6] of 3.48e-05.
In the case of N=C(N)c1ccc(/C=C/c2ccc(C(=N)N)cc2O)cc1, the maximum recommended daily dose (mmol/kg-bw/day) (TherapeuticCategory: antiprotozoal) is reported as 0.0149.
In the case of OCCOCCN1CCN(C2=Nc3ccccc3Sc3ccccc32)CC1, the maximum recommended daily dose (mmol/kg-bw/day) [7] is reported as 0.0347.
CN1CCCC(=C(c2cccs2)c2cccs2)C1 gave a maximum recommended daily dose (mmol/kg-bw/day) (TherapeuticCategory: antitussive) of 0.0182.
For C[N+](C)(CCOc1ccccc1)Cc1ccccc1, the maximum recommended daily dose (mmol/kg-bw/day) [5] was 0.163 and 0.094.
O=C1C(O)N=C(c2ccccc2F)c2cc(Cl)ccc2N1CCO (centres undefined) was tested, and the maximum recommended daily dose (mmol/kg-bw/day) (TherapeuticCategory: sedative, hypnotic) was 0.000955.
Work on CN[C@@H]1[C@H](O[C@H]2[C@H](O[C@H]3[C@H](O)[C@@H](O)[C@H](N=C(N)N)[C@@H](O)[C@@H]3N=C(N)N)O[C@@H](C)[C@]2(O)C=O)O[C@@H](CO)[C@H](O[C@@H]2O[C@H](CO)[C@@H](O)[C@H](O)[C@@H]2O)[C@H]1O yielded a maximum recommended daily dose (mmol/kg-bw/day) [2] of 0.0269.
For CN1CCN(C2=Nc3ccccc3Oc3ccc(Cl)cc32)CC1, the maximum recommended daily dose (mmol/kg-bw/day) [3] was 0.0127.
O=C(O)c1ccccc1Nc1cccc(C(F)(F)F)c1 showed a maximum recommended daily dose (mmol/kg-bw/day) (TherapeuticCategory: analgesic, anti inflammatory) of 0.0356.
Work on NC(Cc1cc(I)c(Oc2cc(I)c(O)c(I)c2)c(I)c1)C(=O)O (centres undefined) yielded a maximum recommended daily dose (mmol/kg-bw/day) (TherapeuticCategory: thyroid hormone, antihyperlipoproteinemic) of 6.44e-06.
With Cc1ccc(C)c(OCCCC(C)(C)C(=O)O)c1 the maximum recommended daily dose (mmol/kg-bw/day) [8] was 0.0799.
CC(N)C12CC3CC(CC(C3)C1)C2 (centres undefined) gave a maximum recommended daily dose (mmol/kg-bw/day) (TherapeuticCategory: antiviral) of 0.0186.
In the case of CCCCCCC(C)(C)c1cc(O)c2c(c1)OC(C)(C)[C@@H]1CCC(=O)C[C@@H]21, the maximum recommended daily dose (mmol/kg-bw/day) [9] is reported as 0.000268.
Work on C1CNCCN1 yielded a maximum recommended daily dose (mmol/kg-bw/day) [5] of 0.774.
NC(N)=NC(N)=NCCc1ccccc1 showed a maximum recommended daily dose (mmol/kg-bw/day) (TherapeuticCategory: antidiabetic) of 0.00814.
O=C1CN=C(c2ccccc2Cl)c2cc([N+](=O)[O-])ccc2N1 showed a maximum recommended daily dose (mmol/kg-bw/day) (TherapeuticCategory: anticonvulsant) of 0.000421.
Work on C[N+](C)(C)CCCCCCCCCC[N+](C)(C)C yielded a maximum recommended daily dose (mmol/kg-bw/day) (TherapeuticCategory: skeletal muscle relaxant) of 9.97e-05.
CC1CCC(C(C)C)C(O)C1 (centres undefined) gave a maximum recommended daily dose (mmol/kg-bw/day) (TherapeuticCategory: topical antipruritic) of 0.0128.
With CC1C2Cc3ccc(O)cc3C1(C)CCN2CC1CC1 (centres undefined) the maximum recommended daily dose (mmol/kg-bw/day) (TherapeuticCategory: narcotic antagonist) was 0.000246.
In the case of CN(C)CCC(c1ccc(Cl)cc1)c1ccccn1 (centres undefined), the maximum recommended daily dose (mmol/kg-bw/day) (TherapeuticCategory: antihistaminic) is reported as 0.000484.
CCOC(=O)C1(c2ccccc2)CCN(CCC(C#N)(c2ccccc2)c2ccccc2)CC1 showed a maximum recommended daily dose (mmol/kg-bw/day) (TherapeuticCategory: antiperistaltic, antidiarrheal) of 0.000736.
COCc1c(C(C)C)nc(C(C)C)c(/C=C/[C@@H](O)C[C@@H](O)CC(=O)O)c1-c1ccc(F)cc1 showed a maximum recommended daily dose (mmol/kg-bw/day) [8] of 1.09e-05.
In the case of COc1ccc(/C=C/C(=O)Nc2ccccc2C(=O)O)cc1OC, the maximum recommended daily dose (mmol/kg-bw/day) (TherapeuticCategory: antiallergic) is reported as 0.0153.
In the case of O=C(O)c1cc(O)c2c(c1)[C@H]([C@H]1c3cc(C(=O)O)cc(O)c3C(=O)c3c(O[C@@H]4O[C@H](CO)[C@@H](O)[C@H](O)[C@H]4O)cccc31)c1cccc(O[C@@H]3O[C@H](CO)[C@@H](O)[C@H](O)[C@H]3O)c1C2=O, the maximum recommended daily dose (mmol/kg-bw/day) (TherapeuticCategory: cathartic) is reported as 0.0194.
For OCCOCCN1CCN(C(c2ccccc2)c2ccc(Cl)cc2)CC1 (centres undefined), the maximum recommended daily dose (mmol/kg-bw/day) (TherapeuticCategory: anxiolytic, antihistaminic) was 0.0178.
For CC(=O)OCC1=C(C(=O)O)N2C(=O)[C@@H](NC(=O)Cc3cccs3)[C@H]2SC1, the maximum recommended daily dose (mmol/kg-bw/day) [2] was 0.252.
CO[C@@H]1[C@@H](OC(N)=O)[C@@H](O)[C@H](Oc2ccc3c(O)c(NC(=O)c4ccc(O)c(CC=C(C)C)c4)c(=O)oc3c2C)OC1(C)C showed a maximum recommended daily dose (mmol/kg-bw/day) [2] of 0.0394.
With CCn1nc(C(=O)O)c(=O)c2cc3c(cc21)OCO3 the maximum recommended daily dose (mmol/kg-bw/day) [2] was 0.0637.
Work on CCC(COC(=O)c1cc(OC)c(OC)c(OC)c1)(c1ccccc1)N(C)C (centres undefined) yielded a maximum recommended daily dose (mmol/kg-bw/day) (TherapeuticCategory: antispasmodic) of 0.0258.
Work on c1ccc(C2(c3ccccc3)CC2C2=NCCN2)cc1 (centres undefined) yielded a maximum recommended daily dose (mmol/kg-bw/day) (TherapeuticCategory: antiarrhythmic) of 0.0248.
In the case of CC(=O)OCC(=O)[C@@]1(OC(=O)c2ccco2)[C@H](C)C[C@H]2[C@@H]3CCC4=CC(=O)C=C[C@]4(C)[C@@]3(F)[C@@H](O)C[C@@]21C, the maximum recommended daily dose (mmol/kg-bw/day) (TherapeuticCategory: glucocorticoid, anti inflammatory) is reported as 0.000284.
CCN(CC)C(C)CN1c2ccccc2Sc2ccccc21 (centres undefined) was tested, and the maximum recommended daily dose (mmol/kg-bw/day) (TherapeuticCategory: antiparkinsonian, anticholinergic) was 0.032.
With CCN(CC)C(=O)[C@@H]1C=C2c3cccc4[nH]cc(c34)C[C@H]2N(C)C1 the maximum recommended daily dose (mmol/kg-bw/day) (TherapeuticCategory: antipsychotic, seratonin receptor antagonist) was 3.86e-05.
In the case of CN(C)c1nc(N(C)C)nc(N(C)C)n1, the maximum recommended daily dose (mmol/kg-bw/day) [4] is reported as 0.0257.
For CO[C@@]12[C@H](COC(N)=O)C3=C(C(=O)C(C)=C(N)C3=O)N1C[C@@H]1N[C@@H]12, the maximum recommended daily dose (mmol/kg-bw/day) [4] was 0.00162.
For CN1CCCCC1CCN1c2ccccc2Sc2ccc(S(C)=O)cc21 (centres undefined), the maximum recommended daily dose (mmol/kg-bw/day) [7] was 0.0129.
In the case of CC(C)C[C@H]1C(=O)N2CCC[C@H]2[C@]2(O)O[C@](NC(=O)[C@@H]3C=C4c5cccc6[nH]c(Br)c(c56)C[C@H]4N(C)C3)(C(C)C)C(=O)N12, the maximum recommended daily dose (mmol/kg-bw/day) (TherapeuticCategory: enzyme inhibitor, antiparkinsonian) is reported as 0.00255.
Work on C[C@]12CC[C@@H]3c4ccc(OC(=O)Cc5ccc(N(CCCl)CCCl)cc5)cc4CC[C@H]3[C@@H]1CC[C@@H]2OC(=O)Cc1ccc(N(CCCl)CCCl)cc1 yielded a maximum recommended daily dose (mmol/kg-bw/day) (TherapeuticCategory: estrogen) of 0.0211.
COc1ccc2c(c1OC)CN1CCc3cc4c(cc3C1C2)OCO4 (centres undefined) was tested, and the maximum recommended daily dose (mmol/kg-bw/day) (TherapeuticCategory: Ca channel blocker) was 0.0981.
CN1CCN(C(c2ccccc2)c2ccccc2)CC1 gave a maximum recommended daily dose (mmol/kg-bw/day) [9] of 0.0125.
With C[C@H](O)C(=O)Nc1c(I)c(C(=O)NC(CO)CO)c(I)c(C(=O)NC(CO)CO)c1I the maximum recommended daily dose (mmol/kg-bw/day) (TherapeuticCategory: diagnostic aid) was 0.129.
Work on CC(C[N+](C)(C)C)OC(N)=O (centres undefined) yielded a maximum recommended daily dose (mmol/kg-bw/day) (TherapeuticCategory: cholinergic) of 0.0169.
For CC[N+](CC)(CC)CCC(O)(c1ccccc1)C1CCCCC1 (centres undefined), the maximum recommended daily dose (mmol/kg-bw/day) (TherapeuticCategory: anticholinergic) was 0.00941.
With C[C@]12CC[C@H]3[C@@H](CCC4=CC(=O)CC[C@@H]43)[C@@H]1CC[C@@H]2OC(=O)CCc1ccccc1 the maximum recommended daily dose (mmol/kg-bw/day) (TherapeuticCategory: anabolic steroid) was 0.00819.
NC(=O)[C@@H]1CCCN1C(=O)[C@H](Cc1cnc[nH]1)NC(=O)[C@@H]1CCC(=O)N1 was tested, and the maximum recommended daily dose (mmol/kg-bw/day) (TherapeuticCategory: prohormone) was 2.3e-05.

From PubChem BioAssay AID1195 (EPA DSSTox, 2008)
